{"source": "patent US20110082166A1", "about": "“NOVEL 4-BENZHYDRYL-TETRAHYDRO-PYRIDINE DERIVATIVES AND THEIR USE AS MONOAMINE NEUROTRANSMITTER RE-UPTAKE INHIBITORS” (NEUROSEARCH A/S, priority 2008, published 2011)", "key": {"[1]": {"biological_target": "T1, reuptake of noradrenaline (NA) in synaptosomes (Rattus norvegicus, UniProt Q63380)", "T1 construct": "in synaptosomes as described in WO 97/16451 (NeuroSearch A/S); from tissue", "T1 sequence (Q63380 1-617)": "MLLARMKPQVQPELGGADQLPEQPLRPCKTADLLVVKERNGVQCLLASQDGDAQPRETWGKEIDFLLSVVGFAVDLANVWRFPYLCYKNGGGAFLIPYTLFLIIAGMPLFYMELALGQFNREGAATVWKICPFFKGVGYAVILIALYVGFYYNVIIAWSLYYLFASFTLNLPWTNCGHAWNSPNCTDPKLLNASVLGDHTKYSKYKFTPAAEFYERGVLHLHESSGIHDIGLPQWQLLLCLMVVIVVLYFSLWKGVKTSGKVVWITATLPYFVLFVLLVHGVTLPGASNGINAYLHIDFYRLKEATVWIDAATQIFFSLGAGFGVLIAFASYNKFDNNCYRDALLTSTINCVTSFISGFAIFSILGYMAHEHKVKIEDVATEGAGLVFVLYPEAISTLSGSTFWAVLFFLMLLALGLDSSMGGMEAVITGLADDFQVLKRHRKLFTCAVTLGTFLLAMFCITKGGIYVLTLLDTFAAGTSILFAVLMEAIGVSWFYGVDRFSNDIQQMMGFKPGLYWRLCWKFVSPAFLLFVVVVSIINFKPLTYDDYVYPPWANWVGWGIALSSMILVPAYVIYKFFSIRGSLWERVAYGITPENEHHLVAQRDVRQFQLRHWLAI", "test": "In vitro inhibition of NA reuptake in synaptosomes", "assay_type": "biochemical"}, "[2]": {"biological_target": "T2, reuptake of dopamine (DA) in synaptosomes (Rattus norvegicus, UniProt P23977)", "T2 construct": "in synaptosomes as described in WO 97/16451 (NeuroSearch A/S); from tissue", "T2 sequence (P23977 whole entry)": "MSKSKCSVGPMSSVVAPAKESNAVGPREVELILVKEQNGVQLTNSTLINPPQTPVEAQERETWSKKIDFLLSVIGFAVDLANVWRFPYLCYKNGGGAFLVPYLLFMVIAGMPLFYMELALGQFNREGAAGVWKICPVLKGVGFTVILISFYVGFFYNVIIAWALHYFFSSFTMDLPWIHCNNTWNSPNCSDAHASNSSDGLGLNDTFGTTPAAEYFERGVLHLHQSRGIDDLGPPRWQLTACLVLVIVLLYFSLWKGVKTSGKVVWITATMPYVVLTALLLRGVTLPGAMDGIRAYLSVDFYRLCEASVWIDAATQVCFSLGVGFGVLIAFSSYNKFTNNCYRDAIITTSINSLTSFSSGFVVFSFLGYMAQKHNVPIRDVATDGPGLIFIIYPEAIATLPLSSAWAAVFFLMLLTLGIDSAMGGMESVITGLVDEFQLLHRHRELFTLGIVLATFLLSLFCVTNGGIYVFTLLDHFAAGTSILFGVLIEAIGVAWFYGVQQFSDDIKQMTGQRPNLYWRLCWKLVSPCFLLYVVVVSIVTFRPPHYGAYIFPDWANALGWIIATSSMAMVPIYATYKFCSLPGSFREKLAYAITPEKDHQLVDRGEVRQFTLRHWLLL", "test": "In vitro inhibition of DA reuptake in synaptosomes", "assay_type": "biochemical"}, "[3]": {"biological_target": "T3, reuptake of serotonine (5-HT) in synaptosomes (Rattus norvegicus, UniProt P31652)", "T3 construct": "in synaptosomes as described in WO 97/16451 (NeuroSearch A/S); from tissue", "T3 sequence (P31652 whole entry)": "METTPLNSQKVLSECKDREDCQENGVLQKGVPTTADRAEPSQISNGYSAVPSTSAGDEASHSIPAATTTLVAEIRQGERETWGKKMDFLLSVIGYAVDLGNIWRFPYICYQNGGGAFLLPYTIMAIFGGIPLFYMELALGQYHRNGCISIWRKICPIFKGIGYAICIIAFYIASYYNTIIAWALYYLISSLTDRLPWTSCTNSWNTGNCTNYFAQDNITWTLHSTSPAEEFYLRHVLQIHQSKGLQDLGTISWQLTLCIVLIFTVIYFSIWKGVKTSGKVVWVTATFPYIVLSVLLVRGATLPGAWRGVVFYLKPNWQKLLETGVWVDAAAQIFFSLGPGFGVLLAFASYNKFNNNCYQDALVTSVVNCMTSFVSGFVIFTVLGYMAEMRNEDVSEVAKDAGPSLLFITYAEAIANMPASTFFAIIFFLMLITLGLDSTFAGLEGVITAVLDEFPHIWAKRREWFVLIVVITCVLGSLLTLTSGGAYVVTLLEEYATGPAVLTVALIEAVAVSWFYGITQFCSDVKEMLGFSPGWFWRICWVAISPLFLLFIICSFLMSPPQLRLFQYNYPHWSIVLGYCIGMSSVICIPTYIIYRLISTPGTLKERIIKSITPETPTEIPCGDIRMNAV", "test": "In vitro inhibition of 5-HT reuptake in synaptosomes", "assay_type": "biochemical", "procedure": "Compounds were tested for their ability to inhibit the reuptake of the monoamine neurotransmitters dopamine (DA) noradrenaline (NA) and serotonine (5-HT) in synaptosomes as described in WO 97/16451 (NeuroSearch A/S).\nThe test values are given as IC50 (the concentration (μM) of the test substance which inhibits the specific binding of ^3H-DA, ^3H-NA, or ^3H-5-HT by 50%)."}}, "note": "Counter-ions that a name gives are not always drawn. Like-named read-outs stand apart in the source and are kept apart here.", "data": [{"smiles": "CN1CC=C(C(c2ccccc2)c2ccccc2)CC1", "note": "[4-Benzhydryl-1-methyl-1,2,3,6-tetrahydro-pyridine]", "values": [{"measurement": "IC50", "setting": "[1]; synaptosomes, 3H-NA, read-out: NA-uptake IC50", "value": 600, "unit": "nM"}, {"measurement": "IC50", "setting": "[2]; synaptosomes, 3H-DA, read-out: DA-uptake IC50", "value": 580, "unit": "nM"}, {"measurement": "IC50", "setting": "[3]; synaptosomes, 3H-5-HT, read-out: 5-HT-uptake IC50", "value": "> 1000", "unit": "nM"}]}, {"smiles": "CN1CC=C(C(c2ccccc2)c2ccccc2)CC1", "note": "(as salt: fumaric acid salt) [4-Benzhydryl-1-methyl-1,2,3,6-tetrahydro-pyridine]", "values": [{"measurement": "melting point", "value": "177.6 to 179.2", "unit": "°C"}]}, {"smiles": "C1=C(C(c2ccccc2)c2ccccc2)CCNC1", "note": "[4-Benzhydryl-1,2,3,6-tetrahydro-pyridine]", "values": [{"measurement": "IC50", "setting": "[1]", "value": 45, "unit": "nM"}, {"measurement": "IC50", "setting": "[2]", "value": 63, "unit": "nM"}, {"measurement": "IC50", "setting": "[3]", "value": 3.5, "unit": "nM"}]}]}
